Laboratory results from patent US20130303509A1, “NAMPT INHIBITORS” (AbbVie Inc., priority 2012, published 2013).

System: PC3 cells
Test: NAMPT Cell Proliferation Assay
Type: cell-based
Conditions: Homo sapiens, PC-3, 120 h, 5 days incubation, cell viability by Cell Titer Glo
In short: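 Seeded at 500 cells/well in RPMI with 10% heat-inactivated FBS and left to attach overnight at 37° C, 5% CO2. Compounds were added as 10-fold dilutions […] for 5 days, then viability was read by CellTiter-Glo. IC50s came from sigmoidal fits of percent inhibition.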

Row | Structure (SMILES) | IC50 [nM]
1 | CC(C)C(=O)N1CCC(c2ccc(C(=O)N[C@H]3CCN(c4cccnn4)C3)s2)CC1 [Example 760, 5-[1-(2-methylpropanoyl)piperidin-4-yl]-N-[(3S)-1-(pyridazin-3-yl)pyrrolidin-3-yl]thiophene-2-carboxamide] | 253
2 | O=C(Nc1ccc(OC2CCN(C(=O)C3CCOCC3)CC2)cc1)C1CN(c2ccnnc2)C1 [Example 306, 1-(pyridazin-4-yl)-N-(4-{[1-(tetrahydro-2H-pyran-4-ylcarbonyl)piperidin-4-yl]oxy}phenyl)azetidine-3-carboxamide] | 34.7
3 | O=C(Nc1ccc(C2CN(C(=O)c3ccc(F)cc3)C2)cc1)[C@H]1CCN(c2cccnn2)C1 [Example 787, (3S)-N-{4-[1-(4-fluorobenzoyl)azetidin-3-yl]phenyl}-1-(pyridazin-3-yl)pyrrolidine-3-carboxamide] | 63.9
4 | COCC(=O)N1CCC(Oc2ccc(NC(=O)C3CN(c4ccnnc4)C3)cc2)CC1 [Example 267, N-(4-{[1-(methoxyacetyl)piperidin-4-yl]oxy}phenyl)-1-(pyridazin-4-yl)azetidine-3-carboxamide] | 622
5 | O=C(Nc1ccc(C2(F)CCN(C(=O)OCc3ccccc3)CC2)cc1)C1CN(c2ccc(Cl)nn2)C1 [Example 853, benzyl 4-[4-({[1-(6-chloropyridazin-3-yl)azetidin-3-yl]carbonyl}amino)phenyl]-4-fluoropiperidine-1-carboxylate] | > 10000
6 | O=C(Nc1ccc(C2CCN(C(=O)Cc3ccc(OC(F)(F)F)cc3)CC2)cc1)C1CN(c2ccnnc2)C1 [Example 561, 1-(pyridazin-4-yl)-N-[4-(1-{[4-(trifluoromethoxy)phenyl]acetyl}piperidin-4-yl)phenyl]azetidine-3-carboxamide] | 62.2

Stronger by IC50, values ahead:

Row | IC50 [nM] | Structure (SMILES)
7 | 5.96 | Cc1ccc(F)cc1C(=O)N1CCC(c2ccc(NC(=O)[C@H]3CCN(c4cccnn4)C3)cc2)CC1 [Example 697, (3S)-N-{4-[1-(5-fluoro-2-methylbenzoyl)piperidin-4-yl]phenyl}-1-(pyridazin-3-yl)pyrrolidine-3-carboxamide]
8 | 3.72 | O=C(Nc1ccc(C2CCN(C(=O)Cc3ccc4ccccc4c3)CC2)cc1)C1CN(c2cccnn2)C1 [Example 421, N-{4-[1-(naphthalen-2-ylacetyl)piperidin-4-yl]phenyl}-1-(pyridazin-3-yl)azetidine-3-carboxamide]
9 | 8.95 | CO[C@H](C(=O)N1CCC(c2ccc(NC(=O)[C@H]3CCN(c4cccnn4)C3)cc2)CC1)c1ccccc1 [Example 633, (3S)-N-(4-{1-[(2S)-2-methoxy-2-phenylacetyl]piperidin-4-yl}phenyl)-1-(pyridazin-3-yl)pyrrolidine-3-carboxamide]
10 | 27.6 | O=C(Nc1ccc(C2CCN(C(=O)Cc3ccc(Cl)cc3Cl)CC2)cc1)[C@H]1CCN(c2cccnn2)C1 [Example 651, (3S)-N-(4-{1-[(2,4-dichlorophenyl)acetyl]piperidin-4-yl}phenyl)-1-(pyridazin-3-yl)pyrrolidine-3-carboxamide]
11 | 6.48 | O=C(Nc1ccc(OC2CCN(C(=O)c3ccsc3)CC2)cc1)C1CN(c2cccnc2)C1 [Example 58, 1-(pyridin-3-yl)-N-(4-{[1-(thiophen-3-ylcarbonyl)piperidin-4-yl]oxy}phenyl)azetidine-3-carboxamide]
12 | 8.27 | O=C(Nc1ccc(C2CCN(C(=O)Cc3cc(F)cc(F)c3)CC2)cc1)C1CN(c2cccnn2)C1 [Example 384, N-(4-{1-[(3,5-difluorophenyl)acetyl]piperidin-4-yl}phenyl)-1-(pyridazin-3-yl)azetidine-3-carboxamide]
13 | 8.99 | O=C(Nc1ccc(C2CCN(C(=O)CSc3ncccn3)CC2)cc1)C1CN(c2cccnn2)C1 [Example 382, 1-(pyridazin-3-yl)-N-(4-{1-[(pyrimidin-2-ylsulfanyl)acetyl]piperidin-4-yl}phenyl)azetidine-3-carboxamide]
14 | 7.57 | CCOCCC(=O)N1CCC(c2ccc(NC(=O)C3CN(c4cccnn4)C3)cc2)CC1 [Example 380, N-{4-[1-(3-ethoxypropanoyl)piperidin-4-yl]phenyl}-1-(pyridazin-3-yl)azetidine-3-carboxamide]
